Experimental data taken from patent US20210228509A1 (Nacuity Pharmaceuticals, Inc., priority 2020, published 2021).

Experiments:
tyrosinase = tyrosinase (Homo sapiens, UniProt P14679); settings: cited from earlier work
mouse model of RP = settings: compared with NAC; cited from earlier work
[1] = system: olfactory bulbectomized rats; settings: cited from earlier work
human melanocytes = settings: cited from earlier work
[2] = system: human retinal pigment epithelial cells; settings: cited from earlier work
[3] = system: sodium selenite-induced cataracts; settings: in vivo; cited from earlier work
RBCs = settings: compared with NAC; cited from earlier work
[4] = system: healthy human skin explants; settings: healthy human skin explants exposed to UV-radiation; cited from earlier work
[5] = system: rats with unilateral 6-OHDA-induced nigral lesion; settings: cited from earlier work
[6] = system: rats given chronic intrajugular rotenone; settings: chronic intrajugular rotenone in rats; cited from earlier work
isolated rat lens = test: Inhibition of oxidation of isolated rat lenses (H2O2 cataract model); format: cell-based, Wistar rat; settings: 10 mM, 24 hour incubation, then 0.5 mM H2O2 24 hours; compared to control (FIG. 1)
Procedure: Protocol for inhibition of oxidation of isolated rat lenses. Three-week old Wistar rat eyes were enucleated and lenses micro-dissected in Dulbecco's modified eagle's medium (low glucose) (DMEM-F12). Lenses were handled using only custom-made glass loops to avoid changes in transparency and placed in 1 mL DMEM with 1% penicillin/streptomycin/neomycin. Lenses were placed in a culture incubator set at 37° C./5% CO2 for one hour. Then lenses were imaged under darkfield and brightfield (grid) to ensure they are still transparent before adding vehicle (H20), 10 mM NACA (solution), or 10 mM diNACA (suspension). Lenses were then imaged at a 6-hour time period to ensure transparency was maintained, then incubated for another 18 hours, then imaged again (total 24 hour incubation). Media was collected and fresh media was added to the wells. 0.5 mM H2O2 (warmed at 37 deg C) was added and left for a further 24-hour incubation. Lenses were imaged, media collected, lenses weighed and flash frozen in tared vials and submitted for further analysis

CD-1 mice = settings: gp120+Tat+METH; cited from earlier work
isolated porcine lenses = test: Inhibition of oxidation of isolated porcine lenses (H2O2-induced cataract); format: cell-based, pigs; settings: for inhibition of H2O2-induced cataract: 24 hours pre-incubation, then 600 μM H2O2 with glucose oxidase 6 hours (FIG. 2); for efficacy against H2O2-induced cataract relative to NAC: FIG. 2
Procedure: Protocol for inhibition of oxidation of isolated porcine lenses. Fresh eyes from pigs were obtained from Sierra For Medical Science. Lenses were first incubated in medium 199 (Sigma-Aldrich, St. Louis, Mo., USA) and 1% pig serum in a 12-well plate for two hours. At the end of the incubation, lenses were imaged under darkfield microscopy and only clear, transparent lenses were used for further experimentation. Lenses were then pre-incubated with NAC, NACA or diNACA for 24 hours. After pretreatment, lenses were transferred to media containing 600 μM H2O2 which was supplemented with glucose oxidase (GO) for maintaining a constant H2O2 level during further incubation for 6 hours [Wang G M, Raghavachari N, Lou M F. Relationship of protein-glutathione mixed disulfide and thioltransferase in H2O2-induced cataract in cultured pig lens. Exp Eye Res. 1997 May; 64(5):693-700. doi: 10.1006/exer.1996.0251. PMID: 9245898.]. At the end of the 6-hour incubation, lenses were imaged under darkfield microscopy

[7] = system: blood cells from β-thalassemic patients; settings: cited from earlier work
[8] = system: J-buthionine-(S,R)-induced cataracts; settings: in vivo; cited from earlier work
β-thalassemic mice = settings: intra-peritoneal injection, 150 mg/kg; cited from earlier work
[9] = system: mice treated with 1-methyl-4-phenyl-1,2,3,6,-tetrahydropyridine; settings: MPTP-treated mice; cited from earlier work
[10] = target: glutamate cysteine ligase (GCL, EC 6.3.2.2); settings: read-out: Ki, nonallosteric competitive inhibition of GCL; cited from earlier work
rabbit eyes = settings: in vivo; cited from earlier work
patients with presbyopia = settings: first-in-human trial in presbyopes; cited from earlier work
human cadaver lenses = settings: in vitro; cited from earlier work
alcohol-preferring rats = settings: alcohol re-access after deprivation, 60 minutes; untreated 95 to 100 mg/dL; cited from earlier work
[11] = humans, oral dose of 600 mg; cited from earlier work
[12] = system: corneal endothelial cells; settings: cell culture; cited from earlier work
mouse model = settings: cited from earlier work
RP patients = settings: oral high dose NAC, cited from earlier work
[13] = Topical ocular study in rabbit (NACA in aqueous humor, ocular tolerability); format: in vivo, Dutch Belted rabbits
Procedure: Example 2: Topical Ocular Study in Rabbit. An IACUC-approved study evaluated diNACA or NACA topical ocular dosing in rabbit. Ophthalmic formulations were developed containing either 1% diNACA or 1% NACA that were used for repeated topical ocular instillation to Dutch Belted rabbits. Animals were dosed four times a day at approximately 8:00 AM, 11 AM, 2 PM, and 4:00 PM on days 1-6, and once on Day 7 at approximately 8:00 AM, via bilateral topical administration. Ocular tolerability was assessed at baseline and prior to the first daily dose by means of scoring chemosis, discharge, and hyperemia (Draize scoring). Ocular tissue was harvested at necropsy (day 7). A qualified analytical LC-MS method was developed and used to quantitate NACA levels in aqueous humor (AH).

[14] = Intravitreal dose study in rabbit (diNACA implant); format: in vivo, Female New Zealand White rabbits
Procedure: Example 3: Intravitreal Dose Study in Rabbit. An IACUC-approved study evaluated intravitreally (IVT) dosed diNACA in rabbit. A standard sterile intravitreal implant containing diNACA was prepared. Female New Zealand White rabbits were administered IVT with a di-NACA implant at a dose of 0.8 mg/eye. One group of animals received IVT placebo implants without any test article. Clinical ophthalmic examinations were performed at baseline and on Days 8 and 23 post-dose. General health observations were performed daily. Body weights were recorded at baseline and prior to termination. Animals were euthanized on Day 8, 15, or 23, and tissue was collected and submitted for bioanalysis. […] Observations of conjunctival bulging, discharge, and minimal hemorrhaging were determined to be related to the injection procedure and resolved in most eyes on the day after dosing.

[15] = Oral dose study in rat (plasma levels); format: in vivo, male Sprague-Dawley rats; settings: oral gavage diNACA 200 milligrams per kilogram (FIG. 5)
Procedure: DiNACA as a Prodrug to NACA and NAC. Example 1: Oral Dose Study in Rat. An IACUC (Institutional Animal Care and Use Committee)-approved study evaluated diNACA dosed via oral gavage in male Sprague-Dawley rats. diNACA was weighed into individual tubes. The tubes were capped and stored at room temperature overnight. Rats were weighed. An appropriate amount of phosphate buffered saline pH 7.0 was added to each tube to achieve the desired diNACA concentration as a suspension. Blood specimens were collected from the tail vein at specified time points and processed to produce plasma. Plasma specimens were analyzed using a validated liquid chromatographic mass spectrometric procedure (King B; Vance J; Wall G M; Shoup R. Quantitation of free and total N-acetylcysteine amide and its metabolite N-acetylcysteine in human plasma using derivatization and electrospray LC-MS/MS. J Chrom B 2019; 1109:25-36.).

[16] = vitreous humor (FIG. 6, FIG. 7)

Chain of tyrosinase (P14679 19-529, species assumed): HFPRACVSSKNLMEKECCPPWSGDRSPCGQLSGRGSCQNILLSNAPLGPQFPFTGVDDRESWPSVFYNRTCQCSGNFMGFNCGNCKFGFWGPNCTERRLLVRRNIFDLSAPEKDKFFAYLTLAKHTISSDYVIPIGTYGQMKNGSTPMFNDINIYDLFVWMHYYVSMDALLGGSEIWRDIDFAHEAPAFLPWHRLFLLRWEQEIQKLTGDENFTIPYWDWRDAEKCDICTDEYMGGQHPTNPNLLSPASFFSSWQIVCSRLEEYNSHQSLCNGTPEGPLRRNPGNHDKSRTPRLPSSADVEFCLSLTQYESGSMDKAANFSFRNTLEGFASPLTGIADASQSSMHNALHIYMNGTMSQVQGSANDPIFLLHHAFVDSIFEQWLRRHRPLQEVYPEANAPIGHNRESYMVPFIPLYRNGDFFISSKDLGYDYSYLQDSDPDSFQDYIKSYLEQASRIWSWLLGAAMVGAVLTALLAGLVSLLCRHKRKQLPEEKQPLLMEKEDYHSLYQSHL

CC(=O)N[C@@H](CS)C(N)=O
inhibition of tyrosinase activity (tyrosinase): significant inhibition of tyrosinase activity was observed in a dose responsive manner | improvement of visual parameters (mouse model of RP): to a greater extent than NAC | cocaine-seeking behavior [1]: blocked cocaine-seeking behavior | melanin production (human melanocytes): inhibited melanin production | protection against oxidative stress-induced cellular injury and death [2]: protected against oxidative stress-induced cellular injury and death | inhibition of sodium selenite-induced cataracts [3]: inhibit | BuOOH-induced intracellular oxidation, thiol depletion and hemoglobin oxidation in RBCs (RBCs): superior to NAC | glutathione and NAC in skin [4]: increased glutathione and NAC | amphetamine-induced rotational behaviour [5]: suppressed amphetamine-induced rotational behaviour | dopaminergic neuronal loss [6]: reduced dopaminergic neuronal loss | inhibition of oxidative formation of cataract (opacity) (isolated rat lens): inhibit oxidative formation of cataract (opacity) | rescue from oxidative stress (GSH, MDA) (CD-1 mice): significantly rescued the animals from oxidative stress | inhibition of H2O2-induced cataract (isolated porcine lenses): dose-dependently inhibit H2O2-induced cataract | efficacy against H2O2-induced cataract relative to NAC (isolated porcine lenses): greater efficacy than NAC | reduction of oxidative stress markers in thalassemic cells relative to NAC ([7]; both in vitro and in vivo): superior to NAC | reactive oxygen species (ROS) of blood cells ([7]; in vitro treatment): reduced their reactive oxygen species (ROS) | reduced GSH content of RBC, platelets and PMN leukocytes ([7]; in vitro treatment): elevated the reduced GSH content | inhibition of buthionine sulfoximine-induced cataracts [8]: inhibit | parameters of oxidative stress (β-thalassemic mice): significantly reduced the parameters of oxidative stress | reduction in striatal dopamine levels [9]: attenuated the reduction in striatal dopamine levels

N[C@@H](CCC(=O)N[C@@H](CS)C(=O)NCC(=O)O)C(=O)O [GSH, c-L-glutamyl-L-cysteinyl-glycine]
Ki [10]: 2300 µM

C[N+](C)(C)CCOC(=O)CCCC[C@@H]1CCSS1 [LACE, lipoic acid choline ester]
lens softening and deformability (rabbit eyes): lens softening and an increase in lens deformability | near visual acuity (DCNVA) improvement compared to placebo (patients with presbyopia): statistically significant | lens softening and deformability (human cadaver lenses): lens softening and an increase in lens deformability

CC(=O)NC(CS)C(=O)O (stereo not drawn) [NAC, 2-acetamido-3-sulfanylpropanoic acid]
reduction of relapse-drinking blood alcohol levels (alcohol-preferring rats): 60% | plasma half-life [11]: 2.5 h | time after administration at which no NAC is detectable [11]: 10 to 12 h | corneal endothelial survival [12]: increased corneal endothelial survival | corneal endothelial survival (mouse model): increased corneal endothelial survival | inhibition of H2O2-induced cataract (isolated porcine lenses): dose-dependently inhibit H2O2-induced cataract | improvement of visual acuity (RP patients; RP patients (n=30), p<0.05): 2-5 letters | aqueous humor concentrations of NAC (RP patients; RP patients): increased aqueous humor concentrations of NAC

CC(=O)Oc1ccccc1C(=O)O [aspirin]
reduction of relapse-drinking blood alcohol levels (alcohol-preferring rats): 60%

CC(=O)NC(CSSCC(NC(C)=O)C(N)=O)C(N)=O [diNACA, (2R,2R′)-3,3′-disulfanediyl bis(2-acetamidopropanamide)]
inhibition of tyrosinase activity (tyrosinase): significant inhibition of tyrosinase activity was observed in a dose responsive manner | melanin production (human melanocytes): inhibited melanin production | glutathione and NAC in skin [4]: increased glutathione and NAC | inhibition of oxidative formation of cataract (opacity) (isolated rat lens): inhibit oxidative formation of cataract (opacity) | inhibition of H2O2-induced cataract (isolated porcine lenses): dose-dependently inhibit H2O2-induced cataract | efficacy against H2O2-induced cataract relative to NAC (isolated porcine lenses): greater efficacy than NAC | penetration into the eye (aqueous humor) ([13]; topical ocular dosing): penetrates the eye | prodrug delivery of NACA to aqueous humor ([13]; topical ocular dosing of 1% diNACA): served as a prodrug to deliver NACA to the AH | effects on general, non-ocular health or on body weights ([14]; IVT implant 0.8 mg/eye): No serious adverse effects | ocular findings on the day of dosing ([14]; IVT implant 0.8 mg/eye): minimal ocular findings | tolerability of IVT delivery ([14]; IVT implant 0.8 mg/eye, up to Day 23): generally well tolerated | elution into vitreous humor from IVT implant [14, 16]: eluted into the VH | metabolites in vitreous humor after diNACA IVT implant [14, 16]: presence of NACA and significant concentrations of NAC in the VH | bioavailability after oral administration [15]: bioavailable | levels in rat plasma after oral diNACA [15]: significant levels of diNACA, NACA and NAC
